Active and inactive are the calls of the source. The rule behind the calls is not given here.
Experiments:
Mus musculus [1] = organism: Mus musculus; assay: Activation of AMPK in mouse 3T3L1 adipocytes assessed as increase in 2-NBDG uptake at 10 uM after 90 mins by fluorescence assay; type: cell-based
C2C12 [2] = assay: Activation of AMPK in mouse C2C12 cells assessed as increase in ACC phosphorylation at Ser79 residues at 1 mM after 1 hr by Western blot analysis; type: cell-based
Mus musculus [3] = organism: Mus musculus; assay: Activation of AMPK in mouse 3T3L1 adipocytes assessed as increase in 2-NBDG uptake at 10 uM after 90 mins by fluorescence microscopy; type: cell-based
C2C12 [4] = assay: Induction of AMPK alpha phosphorylation at Thr172 residue in mouse C2C12 cells at 10 uM after 2 hrs by Western blot analysis; type: cell-based
[5] = Effect on total AMPK expression in mouse C2C12 cells at 10 uM after 2 hrs by Western blot analysis; type: ADME, cell-based; settings: c2c12, 2 h
C2C12 [6] = assay: Activation of AMPK in mouse C2C12 cells assessed as increase in ACC phosphorylation at Ser79 residues at 10 uM after 2 hrs by Western blot analysis; type: cell-based
Mus musculus [7] = organism: Mus musculus; assay: Cytotoxicity against mouse C2C12 cells assessed as decrease in cell viability at 10 uM after 2 to 24 hrs by MTT assay; type: toxicity, cell-based; settings: c2c12, 10 µM
Mus musculus [8] = organism: Mus musculus; assay: Cytotoxicity against mouse 3T3L1 adipocytes assessed as decrease in cell viability at 10 uM after 2 to 24 hrs by MTT assay; type: toxicity; settings: 3t3-l1, 10 µM

**Q.** With COCc1c(OC)cc2c(c1OC)C(=O)c1ccccc1C2=O as the molecule, how does the Activity (Mus musculus [1]) read?
**A.** Its Activity is “Active”.

**Q.** With NC(=O)c1ncn([C@@H]2O[C@H](CO)[C@@H](O)[C@H]2O)c1N as the molecule, how does the Activity (C2C12 [2]) read?
**A.** Its Activity is “Active”.

**Q.** Which Activity (Mus musculus [1]) does the source give for COCc1c(O)cc2c(c1OC)C(=O)c1ccccc1C2=O here?
**A.** Its Activity is “Active”.

**Q.** With Cc1cc2c(cc1O)C(=O)c1ccccc1C2=O as the molecule, how does the Activity (Mus musculus [1]) read?
**A.** The Activity was “Active”.

**Q.** Which Activity (Mus musculus [1]) does the source give for COc1cc2c(c(O)c1COCCC(C)C)C(=O)c1ccccc1C2=O here?
**A.** Its Activity is “Active”.

**Q.** What about the Activity (Mus musculus [3]) of the same molecule?
**A.** Its Activity is “Active”.

**Q.** And the Activity (C2C12 [4])?
**A.** The Activity was “Active”.

**Q.** And the Activity [5]?
**A.** Its Activity is “Non-Toxic”.

**Q.** What about the Activity (C2C12 [6]) of the same molecule?
**A.** The Activity was “Active”.

**Q.** And the Activity (Mus musculus [7])?
**A.** Its Activity is “Non-Toxic”.

**Q.** And the Activity (Mus musculus [8])?
**A.** The Activity was “Non-Toxic”.

**Q.** For Cc1ccc2c(c1)C(=O)c1ccccc1C2=O [TECTOQUINONE], which Activity (Mus musculus [1]) is on record?
**A.** Its Activity is “Active”.

**Q.** What about the Activity (Mus musculus [3]) of the same molecule?
**A.** Its Activity is “Active”.

**Q.** And the Activity (C2C12 [4])?
**A.** The Activity was “Active”.

**Q.** What about the Activity [5] of the same molecule?
**A.** The Activity was “Non-Toxic”.

**Q.** Which Activity (Mus musculus [1]) does the source give for COc1c(O)c(O)cc2c1C(=O)c1ccccc1C2=O here?
**A.** Its Activity is “Active”.

**Q.** With COc1c(C)c(O)cc2c1C(=O)c1ccccc1C2=O as the molecule, how does the Activity (Mus musculus [1]) read?
**A.** The Activity was “Active”.

**Q.** For CCCCOCc1c(O)cc2c(c1O)C(=O)c1ccccc1C2=O, which Activity (Mus musculus [1]) is on record?
**A.** The Activity was “Active”.

**Q.** With COc1cc2c(cc1C)C(=O)c1ccccc1C2=O as the molecule, how does the Activity (Mus musculus [1]) read?
**A.** Its Activity is “Active”.

**Q.** Which results are given for COc1c2c(cc3c1C(=O)c1ccccc1C3=O)OC(C)(C)OC2?
**A.** Activity (Mus musculus [1]): Active; Activity (Mus musculus [3]): Active; Activity (C2C12 [4]): Active; Activity [5]: Non-Toxic; Activity (C2C12 [6]): Active; Activity (Mus musculus [7]): Non-Toxic; Activity (Mus musculus [8]): Non-Toxic

Reference: ChEMBL document CHEMBL3871291, “Anthraquinones from Morinda longissima and their insulin mimetic activities via AMP-activated protein kinase (AMPK) activation” (Bioorg Med Chem Lett, 2017)
